Laboratory results reported in patent US12180226B2, “Spirotricycle RIPK1 inhibitors and methods of uses thereof” (Merck Sharp & Dohme LLC, priority 2021, dated 2024).
Counter-ions that a name gives are not always drawn.

What follows are molecules tested against RIPK1 (recombinant GST-RIPK1 kinase domain, residues 1-327) (Homo sapiens (Human), UniProt Q13546) (assay: RIPK1-ADP-Glo Enzymatic Assay). Conditions: ADP-Glo; 25 nM GST-RIPK1, 300 μM ATP; assay lower limit ~25 nM; read-out: RIPK1 V0 Ec50.
Chain of RIPK1 (recombinant GST-RIPK1 kinase domain, residues 1-327) (Q13546 1-327): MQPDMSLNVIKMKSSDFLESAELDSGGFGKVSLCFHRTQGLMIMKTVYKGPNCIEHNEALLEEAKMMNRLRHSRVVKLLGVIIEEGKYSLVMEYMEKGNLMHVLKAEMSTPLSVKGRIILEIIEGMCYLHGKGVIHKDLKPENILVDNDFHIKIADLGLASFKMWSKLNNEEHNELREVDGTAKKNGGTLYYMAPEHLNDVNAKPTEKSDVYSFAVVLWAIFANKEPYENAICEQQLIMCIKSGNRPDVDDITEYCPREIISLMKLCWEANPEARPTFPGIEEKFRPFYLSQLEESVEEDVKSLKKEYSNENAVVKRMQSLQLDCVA
Format: biochemical
In short: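 GST-tagged kinase domain (residues 1-327, Sf21-expressed), 25 nM, pre-incubated 30 min with compound at ambient temperature, then reacted 150 min with 300 μM ATP and 3 μM dephosphorylated MBP in HEPES pH 7.3 buffer. ADP measured by ADP-Glo luminescence; EC50 from ten-point titration (top 100000 nM), four-parameter fit.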
In the case of `CC1CC2(CCN1C(=O)c1ncccc1F)O[C@@H]1CC[C@@H](c3cccc(F)c3)N1C2=O` (stereo partly drawn) [Example 6.159, (4R,5′S,7a′R)-5′-(3-fluorophenyl)-1-(3-fluoropyridine-2-carbonyl)-2-methyl-tetrahydro-3′H-spiro [piperidine-4,2′-pyrrolo[2,1-b][1,3]oxazol]-3′-one], the EC50 is reported as 826 nM.
`Cc1cc(F)c(C(=O)N2CCC3(CC2)O[C@@H]2CC[C@@H](c4ccccc4)N2C3=O)cc1F` [Example 5.12, (5′S,7a′R)-1-(2,5-difluoro-4-methylbenzene-1-car-bonyl)-5′-phenyltetra-hydro-3′H-spiro[piperi-dine-4,2′-pyrrolo[2,1-b] [1,3]oxazol]-3′-one] was tested, and the EC50 was < 25 nM.
For `C#Cc1cc(C(=O)N2CCC3(CC2)O[C@@H]2CC[C@@H](c4cc(F)cc(F)c4)N2C3=O)ccn1` [Example 5.42, (5′S,7a′R)-5′-(3,5-difluoro-phenyl)-1-(2-ethynylpyri-dine-4-carbonyl)tetra-hydro-3′H-spiro[piperi-dine-4,2′-pyrrolo-[2,1-b] [1,3]oxazol]-3′-one], the EC50 was 39.2 nM.
`O=C(c1cccc(C23CC(C2)C3)n1)N1CCC2(CC1)O[C@@H]1CC[C@@H](c3cc(F)cc(F)c3)N1C2=O` [Example 6.137, (5′S,7a′R)-1-[6-(bicyclo[1.1.1]pentan-1-yl)pyridine-2-car-bonyl]-5-(3,5-difluoro-phenyl)tetrahydro-3′H-spiro[piperidine-4,2′-pyrrolo[2,1-b] [1,3]oxazol]-3′-one] showed an EC50 of 78.7 nM.
For `CC1CN(C(=O)c2ccccc2)CCC12O[C@@H]1CC[C@@H](c3cc(F)cc(F)c3)N1C2=O` (single isomer, unassigned) [Example 2.6, (3[S or R],4[S or R], 5′S,7a′R)-1-benzoyl-5′-(3,5-difluorophenyl)-3-methyltetrahydro-3′H-spiro[piperidine-4,2′-pyrrolo[2,1-b]oxazol]-3′-one], the EC50 was < 25 nM.
For `Cc1cnc([C@@H]2CC[C@H]3OC4(CCN(C(=O)c5ccccc5)CC4)C(=O)N32)cn1` [Example 6.143, (5′S,7a′R)-1-(benzene-carbonyl)-5′-(5-meth-ylpyrazin-2-yl)tetra-hydro-3′H-spiro [piperidine-4,2′-pyrrolo[2,1-b][1,3]oxazol]-3′-one], the EC50 was 56.8 nM.
`CC1CC2(CCN1C(=O)c1ccccc1)O[C@@H]1CC[C@@H](c3cc(F)cc(F)c3)N1C2=O` (stereo partly drawn) [Example 6.105, (4R,5′S,7a′R)-1-(benzenecarbonyl)-5′-(3,5-difluorophenyl)-2-methyltetrahydro-3′H-spiro[piperidine-4,2′-pyrrolo[2,1-b] [1,3]oxazol]-3′-one] was tested, and the EC50 was 841 nM.
`O=C(c1ccn2ccccc12)N1CCC2(CC1)O[C@@H]1CC[C@@H](c3cc(F)cc(F)c3)N1C2=O` [Example 5.68, (5′S,7a′R)-5′-(3,5-difluoro-phenyl)-1-(indolizine-1-carbonyl)tetrahydro-3′H-spiro[piperidine-4,2′-pyrrolo[2,1-b]oxazol]-3′-one] was tested, and the EC50 was < 25 nM.
Molecule `O=C(c1cnc2cccnn12)N1CCC2(CC1)O[C@@H]1CC[C@@H](c3cc(F)cc(F)c3)N1C2=O` [Example 6.16, (5′S,7a′R)-5′-(3,5-difluorophenyl)-1-(imidazo[1,2-b]-pyridazine-3-carbon-yl)tetrahydro-3′H-spiro[piperidine-4,2′-pyrrolo[2,1-b][1,3]oxazol]-3′-one] has an EC50 of 276 nM.
Work on `N#Cc1cc(N2CC3(C2)O[C@@H]2CC[C@@H](c4cc(F)cc(F)c4)N2C3=O)ncn1` [Example 4.118, 6-((5′S,7a′R)-5′-(3,5-difluorophenyl)-3′-oxotetrahydro-3′H-spiro[azetidine-3,2′-pyrrolo[2,1-b]oxazol]-1-yl)pyrimidine-4-carbonitrile] yielded an EC50 of 228 nM.
Work on `Nc1nnc(N2CCC3(CC2)O[C@@H]2CC[C@@H](c4ccccc4)N2C3=O)s1` [Example 11.23, (5′S,7a′R)-1-(5-amino-1,3,4-thiadiazol-2-yl)-5′-phenyltetrahydro-3′H-spiro[piperidine-4,2′-pyrrolo[2,1-b][1,3]oxazol]-3′-one] yielded an EC50 of 306 nM.
`O=C(c1c(F)cc(F)cc1F)N1CCC2(CC1)O[C@@H]1CC[C@@H](c3ccccc3)N1C2=O` [Example 5.8, (5′S,7a′R)-5′-phenyl-1-(2,4,6-trifluorobenzene-1-carbonyl)tetrahydro-3′H-spiro[piperidine-4,2′-pyrrolo[2,1-b][1,3]oxazol]-3′-one] was tested, and the EC50 was < 25 nM.
With `COc1cccc([C@@H]2CC[C@H]3OC4(CCN(c5ccc(C#N)c6ncnn56)CC4)C(=O)N32)c1` [Example 20.2, 5-[(5′S,7a′R)-5′-(3-methoxyphenyl)-3′-oxotetrahydro-1H,3′H-spiro[piperidine-4,2′-pyrrolo[2,1-b][1,3]oxazol]-1-yl][1,2,4]triazolo[1,5-a]pyridine-8-carbonitrile] the EC50 was 25 nM.
For `Cc1nc(N2CCC3(CC2)O[C@@H]2CC[C@@H](c4cc(F)cc(F)c4)N2C3=O)ncc1OC(F)F` [Example 4.58, (5′S,7a′R)-1-[5-(difluoromethoxy)-4-methylpyrimidin-2-yl]-5′-(3,5-difluorophenyl)tetrahydro-3′H-spiro[piperidine-4,2′-pyrrolo[2,1-b] [1,3]oxazol]-3′-one], the EC50 was 45.9 nM.
`O=C(c1csnn1)N1CCC2(CC1)O[C@@H]1CC[C@@H](c3cc(F)cc(F)c3)N1C2=O` [Example 5.49, (5′S,7a′R)-5′-(3,5-difluoro-phenyl)-1-(1,2,3-thiadi-azole-4-carbonyl)tetra-hydro-3′H-spiro[piperidine-4,2′-pyrrolo[2,1-b]oxazol]-3′-one] was tested, and the EC50 was 78.1 nM.
In the case of `N#Cc1ccc(N2CCC3(CC2)O[C@@H]2CC[C@@H](c4ccccc4F)N2C3=O)n2nccc12` [Example 4.156, 7-[(5′S,7a′R)-5′-(2-fluorophenyl)-3′-oxotetrahydro-1H,3′H-spiro[piperidine-4,2′-pyrrolo[2,1-b] [1,3]oxazol]-1-yl]pyrazolo[1,5-a] pyridine-4-carbonitrile], the EC50 is reported as < 25 nM.
`O=C(c1cccc(F)c1F)N1CCC2(CC1)O[C@@H]1CC[C@@H](c3ccccc3)N1C2=O` [Example 5.9, (5′S,7a′R)-1-(2,3-difluorobenzene-1-car-bonyl)-5′-phenyltetra-hydro-3′H-spiro[piperi-dine-4,2′-pyrrolo[2,1-b] [1,3]oxazol]-3′-one] was tested, and the EC50 was < 25 nM.
`Cc1nc(Cl)c(C)c(N2CCC3(CC2)O[C@@H]2CC[C@@H](c4ccccc4)N2C3=O)n1` [Example 4.22, (5′S,7a′R)-1-(6-chloro-2,5-dimethylpyrimidin-4-yl)-5′-phenyltetrahydro-3′H-spiro[piperidine-4,2′-pyrrolo[2,1-b] [1,3]oxazol]-3′-one] showed an EC50 of 26.9 nM.
`Cc1nnc(C(=O)N2CCC3(CC2)O[C@@H]2CC[C@@H](c4cc(F)cc(F)c4)N2C3=O)o1` [Example 5.76, (5′S,7a′R)-5′-(3,5-difluoro-phenyl)-1-(5-methyl-1,3,4-oxadiazole-2-carbonyl)-tetrahydro-3′H-spiro[piperi-dine-4,2′-pyrrolo[2,1-b] [1,3]oxazol]-3′-one] gave an EC50 of 924 nM.
`COc1ccnc(N2CCC3(CC2)O[C@@H]2CC[C@@H](c4cc(F)cc(F)c4)N2C3=O)n1` [Example 4.10, (5′S,7a′R)-5′-(3,5-difluorophenyl)-1-(4-methoxypyrimidin-2-yl)tetrahydro-3′H-spiro[piperidine-4,2′-pyrrolo[2,1-b] [1,3]oxazol]-3′-one] showed an EC50 of 35.5 nM.
For `O=C(c1cccc(Cl)c1)N1CCC2(CC1)O[C@@H]1CC[C@@H](c3cc(F)cc(F)c3)N1C2=O` [Example 6.9, (5′S,7a′R)-1-(3-chloro-benzene-1-carbonyl)-5′-(3,5-difluoro-phenyl)tetrahydro-3′H-spiro[piperidine-4,2′-pyrrolo[2,1-b] [1,3]oxazol]-3′-one], the EC50 was < 25 nM.
`O=C1N2[C@H](CC13CCN(c1ccnc4c(F)cnn14)CC3)OC[C@H]2c1ccccc1` [Example 4.120, (3′R,7a′S)-1-(3-fluoropyrazolo[1,5-a]pyrimidin-7-yl)-3′-phenyltetrahydro-5′H-spiro[piperidine-4,6′-pyrrolo[2,1-b] [1,3]oxazol]-5′-one] was tested, and the EC50 was < 25 nM.
With `O=C1N2[C@@H](CC[C@H]2c2ccccc2)OC12CCN(c1ncc(-c3ncco3)c(C(F)F)n1)CC2` [Example 21.3, (5′S,7a′R)-1-[4-(difluoromethyl)-5-(1,3-oxazol-2-yl)pyrimidin-2-yl]-5′-phenyltetrahydro-3′H-spiro[piperidine-4,2′-pyrrolo[2,1-b][1,3]oxazol]-3′-one] the EC50 was < 25 nM.
In the case of `O=C(c1nc2ncccc2s1)N1CCC2(CC1)O[C@@H]1CC[C@@H](c3cc(F)cc(F)c3)N1C2=O` [Example 6.26], the EC50 is reported as 321 nM.
`N#Cc1ccc(N2CCC3(CC2)O[C@@H]2CC[C@@H](c4ccccc4)N2C3=O)n2ncnc12` [Example 4.261, 5-[(5′S,7a′R)-3′-oxo-5′-phenyltetrahydro-1H,3′H-spiro[piperidine-4,2′-pyrrolo[2,1-b] [1,3]oxazol]-1-yl][1,2,4]triazolo[1,5-a] pyridine-8-carbonitrile] was tested, and the EC50 was < 25 nM.
In the case of `O=C1N2[C@@H](CC[C@H]2c2cc(F)cc(F)c2)OC12CCN(c1ccc(Cl)c3nccn13)CC2` [Example 13.16, (5′S,7a′R)-1-(8-chloroimidazo[1,2-a]pyridin-5-yl)-5′-(3,5-difluorophenyl)tetrahydro-3′H-spiro[piperidine-4,2′-pyrrolo[2,1-b]oxazol]-3′-one, TFA salt], the EC50 is reported as 32 nM.
With `CN(C)C(=O)c1ccc(N2CCC3(CC2)O[C@@H]2CC[C@@H](c4ccccc4)N2C3=O)nc1` [Example 4.167, N,N-dimethyl-6-[(5′S,7a′R)-3′-oxo-5′-phenyltetrahydro-1H,3′H-spiro[piperidine-4,2′-pyrrolo[2,1-b] [1,3]oxazol]-1-yl]pyridine-3-carboxamide] the EC50 was 259 nM.
For `CC1CN(c2ncnc3ccnn23)CCC12O[C@@H]1CC[C@@H](c3cc(F)cc(F)c3)N1C2=O` (stereo partly drawn) [Example 4.267, (5′S,7a′R)-5′-(3,5-difluorophenyl)-3-methyl-1-(pyrazolo[1,5-a] [1,3,5]triazin-4-yl)tetrahydro-3′H-spiro[piperidine-4,2′-pyrrolo[2,1-b] [1,3]oxazol]-3′-one], the EC50 was < 25 nM.
